Columns and labels:
human sensory panel = human sensory panel triangle test; format: in vivo; conditions: humans, CaCl2 8 mM, MgCl2 8 mM; for % correct, triangle test in umami mix: GSH 0.65 mM in MSG/IMP/NaCl mix vs mix blank; for % correct, triangle test in water: GSH 0.65 mM in mineral water vs blank
Procedure: All solutions were prepared using a commercial mineral water, Highland Spring (Highland Spring group, Blackford, UK) previously tested on our taste sensory panel and found to have the lowest level of inherent taste, thus being the least disruptive to taste tests. All taste-active substances were food-grade or of the highest available purity.
For tests with CaCl2, MgCl2, and GSH, each compound was dissolved directly in water, at 8 mM, 8 mM and 0.65 mM, respectively. Each compound was also tested in a mixture of umami and salty compounds, previously described in kokumi sensory evaluation, composed of 0.02% MSG, 0.02% IMP and 0.07% NaCl.
The human sensory panel experimental protocols were approved by the Waltham Animal Welfare and Ethical Review Board and all methods were carried-out in accordance with all local regulations and guidelines. Informed consent was obtained from all subjects, and all participants were over the legal age of consent. All assessors used for the tests were validated following the process outlined in ISO 8586:2012(E). Briefly, all assessors were evaluated on their capacity to recognise tastants from blank solutions and successfully identify the basic taste modalities presented. The panellists were also assessed on their ability to correctly rank solutions of a tastant in ascending concentration order. The measures for successful validation of panellists were applied to all who completed the assessment.
For the kokumi tastant tests, six tests in all were completed, two with each CaSR agonist chosen CaCl2, MgCl2, or GSH. The number of participating panellists for each test varied between twenty-four and twenty-five. […] No replicate evaluations were done by the same assessor. For each compound, the assessors were presented with […] separate forced choice triangle tests. In the first test, the compound was dissolved in spring water and compared to a blank of pure spring water, in the second the compound was dissolved into the previously described umami mix[8] and compared to a blank of the umami mix. In each separate test, the panellists were presented with the samples in a randomised order to eliminate potential bias. Panellists were presented either two blanks and a sample or two samples and a blank and asked to identify the sample that was different in the triad. Panellists were asked to give a brief description of why the sample chosen was different. If they were unable to detect a difference, the assessors were instructed to choose a sample at random and specify in the description that they were unable to make a difference between the samples[61].
The data was analysed for statistical significance using a standard methodology described in[61]. For this, the number of correct answers were compared to the number of assessors in each test, at the α-risk level chosen for the test. […] As determined by a one tailed test, the minimum number of panellists required to successfully determine difference between samples was thirteen for the chosen α value.
Initially, a contingency table of the number of correct answers and the number of wrong answers was created for each test. Then, Pearson’s chi-square test was then applied to the resulting table, with the probability of a correct answer at random being 1/ 3, while the probability of a wrong answer was 2/ 3.

hCaSR = biological target: T1, hCaSR (Homo sapiens, UniProt P41180); test: hCaSR transiently expressed in HEK293/natClytin, agonist luminescence assay; format: cell-based; conditions: transiently expressed hCaSR; > 3 mM = maximal response not reached; read-out: hCaSR EC50
T1 construct: expressed in transfected cells; host or cells: HEK293/natClytin (transient, pcDNA6 as delivered by GeneArt)
T1 sequence (P41180 20-1078): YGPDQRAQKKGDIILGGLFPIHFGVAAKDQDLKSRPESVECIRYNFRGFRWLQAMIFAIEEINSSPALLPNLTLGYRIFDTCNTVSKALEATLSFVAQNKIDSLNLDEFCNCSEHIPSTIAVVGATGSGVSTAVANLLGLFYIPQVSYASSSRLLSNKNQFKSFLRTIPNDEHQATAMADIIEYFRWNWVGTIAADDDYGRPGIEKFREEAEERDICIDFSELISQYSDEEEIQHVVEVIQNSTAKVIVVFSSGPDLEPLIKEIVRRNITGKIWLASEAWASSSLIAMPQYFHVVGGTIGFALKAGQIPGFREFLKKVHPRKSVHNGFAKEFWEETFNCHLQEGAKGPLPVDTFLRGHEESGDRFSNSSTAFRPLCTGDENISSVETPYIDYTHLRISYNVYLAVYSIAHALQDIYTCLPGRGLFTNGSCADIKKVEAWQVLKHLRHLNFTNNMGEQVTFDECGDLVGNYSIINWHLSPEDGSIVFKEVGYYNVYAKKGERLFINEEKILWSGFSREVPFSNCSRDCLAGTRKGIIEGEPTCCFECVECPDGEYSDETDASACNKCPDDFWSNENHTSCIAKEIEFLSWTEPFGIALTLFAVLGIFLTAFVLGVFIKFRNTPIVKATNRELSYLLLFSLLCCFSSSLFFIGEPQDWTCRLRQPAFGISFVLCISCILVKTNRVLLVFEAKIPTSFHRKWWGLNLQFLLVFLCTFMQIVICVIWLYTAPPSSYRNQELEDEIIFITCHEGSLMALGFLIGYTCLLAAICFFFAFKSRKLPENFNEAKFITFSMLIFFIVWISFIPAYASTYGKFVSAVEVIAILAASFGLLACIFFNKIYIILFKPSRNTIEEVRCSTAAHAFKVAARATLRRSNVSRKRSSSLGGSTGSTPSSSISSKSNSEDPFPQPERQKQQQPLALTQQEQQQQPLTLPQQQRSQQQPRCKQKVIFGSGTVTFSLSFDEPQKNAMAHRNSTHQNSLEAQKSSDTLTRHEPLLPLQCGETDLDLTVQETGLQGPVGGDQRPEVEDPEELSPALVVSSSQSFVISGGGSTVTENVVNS
Procedure: The coding sequence of the Felis catus[52] and Homo sapiens[53] CaSR gene was synthesised by GeneArt (Thermo Fisher Scientific). The cat coding sequence was excised from the GeneArt construct and inserted in pcDNA3.1 for constitutive and transient expression or pcDNA5/ TO for inducible expression. For the human sequence the pcDNA6 vector as delivered by GeneArt was used without further sub-cloning.
All transient transfections were performed with Lipofectamine 2000 (Invitrogen) according to the manufacturer’s protocol.

SMILES | % correct, triangle test in umami mix (human sensory panel) [%] | % correct, triangle test in water (human sensory panel) [%] | EC50 (hCaSR) [mM]
[Ca+2].[Cl-].[Cl-] [Ca^2+, CaCl2] | 36 | 56 | 0.8
[Cl-].[Cl-].[Mg+2] [Mg^2+, MgCl2] | 50 | 50 | 3.9
N[C@@H](CCC(=O)N[C@@H](CS)C(=O)NCC(=O)O)C(=O)O [Glutathione] | 58.3 | 37.5 | > 3
